# According to patent publication US10172962B2, “Macromolecular delivery systems for non-invasive imaging, evaluation and treatment of arthritis and other inflammatory diseases” (University of Utah Research Foundation, priority 2004, dated 2019):
# What was measured:
# Format in all cases: in vivo, rat
# AIA rats [1] = assay: Treatment of AIA rats: ankle joint swelling (caliper diameter)
# Experimental: (§1) Male Lewis rats (175-200 g) were obtained from Charles River Laboratories (Portage, Mich.) and allowed to acclimate for at least one week. To induce arthritis, Mycobacterium Tuberculosis H37Ra (1 mg) and LA (5 mg) were mixed in paraffin oil (100 μL), sonicated and s.c. injected into the base of the rat's tail (20). The rats were then randomized into 3 rats/group. The progression of the joint inflammation was followed by measuring the diameter of the ankle joint with calipers. Special care was given to the rats as the inflammation developed to ensure availability and access to water and food. The MRI contrast agents used for the study were injected directly into the jugular vein while the animal was anesthetized with Ketamine and Xylazine.
# . Hydrazine was used as the targeting moiety, as it may bind to negative charged moieties on cartilage. The anti-arthritic drug, dexamethasone, was linked to the polymer backbone (P-Dex) via a pH sensitive hydrozone bond as illustrated in FIG. 6. The polymer with the hydrazine and dexamethasone attached was then injected into AIA rats (4/group) on day 13 after the induction of arthritis. A single dose of 10 mg (P-Dex)/kg was given. […]
# AIA rats [2] = assay: Treatment of AIA rats: bone mineral density by peripheral dual x-ray absorptiometry; settings: 7/group, FIG. 8
# Experimental: The bone mineral density (BMD) of the bones in the arthritic joints was measured by peripheral dual x-ray absorptiometry (pDXA, Norland Medical Systems) adapted for small animals. For this the intact hind limbs were used and the scan region included the ankle and foot bones. The coefficient of variation between measurements was less than 1%.
# One of the significant impacts of rheumatoid arthritis inflammation is the damage to the bone in the joints, which is evident in FIG. 8 of the animals with no treatment (saline). […] However, such improvement can be greatly strengthened if Dex is conjugated to HPMA copolymer. […] A more dynamic factor to consider in the bone metabolism is the extent of bone erosion. The bone eroded surface directly correlates with the recruitment and activity of osteoclasts, which are the cells responsible for bone resorption and the development of bone damage. In FIG. 9, the bone erosion surface data for all the treatment groups is summarized. […] The histology analysis of the arthritic joints with different treatments also confirmed the superiority of the P-Dex treatment (FIG. 10).
# AIA rats [3] = assay: Visualization of plasma albumin accumulation with Evans blue dye in AIA rats
# Experimental: as §1
# (§2) Evans blue dye (EB, 10 mg/kg in saline) was injected into healthy and AIA rats via the tail vein. The extravasation and accumulation of dye in the areas of joint inflammation could be visually observed as appearance of the blue pigment. Photographs of the ankle and paws were taken before and 8 hours after injection.
# For this experiment, EB was injected into the rats 15 days after injection of the adjuvant. By this time, there is a robust inflammatory reaction evident in the ankle joints. […] Some deep blue spots were also observed on some digits of the paw. […]
# healthy rats = assay: Evans blue dye injection in healthy control rats; settings: EB 10 mg/kg tail vein
# Experimental: as §2
# For this experiment, EB was injected into the rats 15 days after injection of the adjuvant. By this time, there is a robust inflammatory reaction evident in the ankle joints. […] Some deep blue spots were also observed on some digits of the paw. Photographs taken before and after injection of the EB dye confirm that the areas with dye accumulation correspond to those with marked inflammation.
Compound,"ankle joint swelling after the injections on day 13 (AIA rats [1]; P-Dex single dose 10 mg/kg day 13, Dex same dose divided in 4 daily doses day 13-16)","course of inflammation after cessation of the daily Dex injections (AIA rats [1]; P-Dex single dose day 13, Dex 4 daily doses day 13-16)",bone mineral density (BMD) / bone preservation of the arthritic joints (AIA rats [2]),"accumulation of dye in inflamed paws (AIA rats [3]; AIA rats, EB 10 mg/kg tail vein, 15 days after adjuvant)",nonspecific transfer of dye to other tissues (AIA rats [3]; organs including liver and heart),localization of dye to joint areas (healthy rats)
"C[C@@H]1C[C@H]2[C@@H]3CCC4=CC(=O)C=C[C@]4(C)[C@@]3(F)[C@@H](O)C[C@]2(C)[C@@]1(O)C(=O)COP(=O)(O)O [Dex, Dexamethasone sodium phosphate]",dramatic decrease of ankle joint swelling,the inflammation rapidly got worse,can slow bone erosion,,,
"Cc1cc(-c2ccc(/N=N/c3ccc4c(S(=O)(=O)O)cc(S(=O)(=O)O)c(N)c4c3O)c(C)c2)ccc1/N=N/c1ccc2c(S(=O)(=O)O)cc(S(=O)(=O)O)c(N)c2c1O [EB, Evans blue]",,,,gradual accumulation of blue color in the inflamed hind paw and front paws,a slight blue staining was evident in some organs,the dye was not localized to joint areas
